Data on two compounds can be found in patent US20090041862A1, “Detecting disease association with aberrant glycogen synthase kinase 3beta expression” (priority 2004, published 2009).

In assay [1] the test system is GSKΔexon9+11. Put plainly: Inhibition of endogenous Tau [pS396] phosphorylation in COS-7 cells transfected with GSKΔexon9+11 cDNA (ELISA). The format is cell-based, human. The protocol:
Lymphocytes (as described in Example 3) or transfected cells were lysed in 1× Lysis buffer (50 mM Tris.HCl (pH 7.4), 150 mM NaCl, 1 mM PMSF, 1× complete cocktail protease inhibitor (Boehringer Mannheim) and 0.05% Triton X-100. Approximately 2-25 μg of total protein was used to assay for total Tau or Tau phosphorylated at serine residue 396 using the Human Tau or Human Tau [pS396] ELISA kit respectively (Biosource International, CA, USA).
COS-7 cells plated onto 12 well plates at concentration of 1×10^5 cells/well and allowed to recover for 24 hours. Each well was transfected with either the GSKΔexon9 or GSKΔexon9+11 cDNA constructs (as described in Example 4) using Lipofectamine 2000.

For assay [2], the target named is Tau (endogenous Tau protein in COS-7 cells). Nature of the assay: cell-based or functional assay.

On to `Cn1sc(=O)n(Cc2ccccc2)c1=O` [TDZD8], for which, in assay [1] (ratio of IC50 values, COS-7 cells), the “increase in sensitivity of GSKΔexon9+11 compared with GSKΔexon9” value was 2 fold. Also, in assay [1] (result in words), the “suppressing the level of tau phosphorylation in a cell expressing GSK-3β lacking exon 9 and exon 11 vs lacking exon 9” value was “at a level greater than observed in a cell expressing GSK-3β lacking exon 9”.

Regarding “GSK-3β lacking exon 9 and exon 11 (GSKΔexon9+11 isoform) (from UniProt P49841 1-420)”, in assay [2], the levels of Tau [pSer396] by ELISA in COS-7 cells transfected with GSK-3β isoform cDNAs is 2.5 fold.
